In US7851637B2, “Compounds and methods for inhibiting the interaction of BCL proteins with binding partners” (Infinity Pharmaceuticals, Inc., priority 2004, dated 2010):

Experiments:
[1] = molecular target: Bcl-xL (Homo sapiens, UniProt Q07817); assay: Bcl-xL binding affinity analysis (fluorescence polarization binding assay); design: scale not given here
In short: (§1)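 FP readout; quantitative in vitro binding format; same method applied to both anti-apoptotic proteins.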

[2] = molecular target: Bcl-2 (Homo sapiens, UniProt P10415); assay: Bcl-2 binding affinity analysis (fluorescence polarization binding assay)
In short: as §1

Bcl-xL, sequence (Q07817 whole entry): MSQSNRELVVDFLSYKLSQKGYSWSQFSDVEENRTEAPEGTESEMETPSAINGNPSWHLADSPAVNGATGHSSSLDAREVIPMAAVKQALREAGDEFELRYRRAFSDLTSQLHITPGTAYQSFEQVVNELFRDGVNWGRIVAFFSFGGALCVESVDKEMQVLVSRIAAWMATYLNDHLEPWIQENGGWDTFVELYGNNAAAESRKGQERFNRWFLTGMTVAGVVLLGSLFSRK
Bcl-2, sequence (P10415 whole entry): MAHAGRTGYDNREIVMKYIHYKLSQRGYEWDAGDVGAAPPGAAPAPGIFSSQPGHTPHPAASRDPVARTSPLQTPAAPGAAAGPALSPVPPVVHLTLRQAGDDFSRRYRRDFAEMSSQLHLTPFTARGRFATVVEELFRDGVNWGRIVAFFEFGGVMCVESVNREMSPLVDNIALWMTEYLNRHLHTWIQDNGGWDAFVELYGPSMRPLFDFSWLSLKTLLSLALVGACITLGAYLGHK

| Bcl-XL binding affinity Ki [1] | Ki [2] [µM] | SMILES |
| --- | --- | --- |
| ♯ | < 0.8 | C[C@@H]1[C@@H](NC(=O)[C@@H]2[C@H]([C@H](C)O)[C@H](CO)ON2Cc2cccc(-c3ccc4c(c3)C(=O)N(C)C4=O)c2)C[C@H]2C[C@@H]1C2(C)C [Compound 128] |
| ♯ | 0.8 to 6 | C[C@@H](O)[C@H]1[C@@H](CO)ON(Cc2cccc(C#CCN(C)Cc3ccccc3)c2)[C@H]1C(=O)NCCCN(C)c1ccccc1 [Compound 51] |
| ♯♯ | < 0.8 | C[C@@H]1[C@@H](NC(=O)[C@@H]2[C@H]([C@H](C)O)[C@H](CO)ON2Cc2cccc(-c3cccc(C(=O)N4CC[C@H](N(C)C)C4)c3)c2)C[C@H]2C[C@@H]1C2(C)C [Compound 119] |
| ♯ | < 0.8 | C[C@H](O)[C@@H]1[C@H](CO)ON(Cc2cccc(-c3ccc(NCCN4CCOCC4)cc3)c2)[C@@H]1C(=O)NC1CC2C[C@@H]([C@@H]1C)C2(C)C (some centres unmarked) [Compound 278] |
| ♯ | < 0.8 | C[C@@H]1[C@@H](NC(=O)[C@@H]2[C@H]([C@H](C)O)[C@H](CO)ON2Cc2cccc(-c3cccc(C(=O)N[C@H]4CCNC4)c3)c2)C[C@H]2C[C@@H]1C2(C)C [Compound 114] |
| ♯♯ | < 0.8 | C[C@@H]1[C@@H](NC(=O)[C@@H]2[C@H]([C@H](C)O)[C@H](CO)ON2Cc2cccc(-c3ccc(-n4ccnc4)cc3)c2)C[C@H]2C[C@@H]1C2(C)C [Compound 117] |
| ♯ | > 50 | CCCCC[C@H](O)C#Cc1cccc(CN2O[C@@H](CO)[C@@H]([C@H](C)O)[C@H]2C(=O)NCCC(C)C)c1 [Compound 41] |
| ♯ | < 0.8 | CCN(CC)CCNC(=O)c1cccc(-c2cccc(CN3O[C@@H](CO)[C@@H]([C@H](C)O)[C@H]3C(=O)N[C@H]3C[C@H]4C[C@@H]([C@@H]3C)C4(C)C)c2)c1 [Compound 112] |
| ♯ | < 0.8 | C[C@@H](O)[C@H]1[C@@H](CO)ON(Cc2cccc(C#CC(O)c3ccc(-c4ccccn4)cc3)c2)[C@H]1C(=O)NCCCN(C)c1ccccc1 (some centres unmarked) [Compound 252] |
| ♯ | < 0.8 | C[C@@H]1[C@@H](NC(=O)[C@@H]2[C@H]([C@H](C)O)[C@H](CO)ON2Cc2cccc(N3CCN(C(=O)NCc4ccccc4)CC3)c2)C[C@H]2C[C@@H]1C2(C)C [Compound 260] |
| ♯♯ | > 50 | C[C@@H](O)[C@H]1[C@@H](CO)ON(Cc2cccc(C#CCNC(=O)c3ccccc3)c2)[C@H]1C(=O)NCc1ccc(-c2ccccc2)cc1 [Compound 60] |
| ♯ | < 0.8 | C[C@@H]1[C@@H](NC(=O)[C@@H]2[C@H]([C@H](C)O)[C@H](CO)ON2Cc2cccc(-c3ccc(S(C)(=O)=O)cc3)c2)C[C@H]2C[C@@H]1C2(C)C [Compound 115] |
| ♯ | < 0.8 | CCC(C)C(CN(C)C)N(Cc1cccc(CN2OC(CO)C(C(C)O)C2C(=O)NC2CC3CC(C2C)C3(C)C)c1)Cc1c(O)cccc1F (centres unmarked) [Compound 440] |
| ♯ | 0.8 to 6 | C[C@@H](O)[C@H]1[C@@H](CO)ON(Cc2cccc(C#CCNC(=O)c3ccccc3)c2)[C@H]1C(=O)NCCCCc1ccccc1 [Compound 64] |
| ♯♯ | < 0.8 | C[C@@H]1[C@@H](NC(=O)[C@@H]2[C@H]([C@H](C)O)[C@H](CO)ON2Cc2cccc(N(CCN(C)C)Cc3ccccc3)c2)C[C@H]2C[C@@H]1C2(C)C [Compound 235] |
| ♯ | < 0.8 | C[C@@H]1[C@@H](NC(=O)[C@@H]2[C@H]([C@H](C)O)[C@H](CO)ON2Cc2cccc(-c3ccc(C(=O)N(C)C)cc3)c2)C[C@H]2C[C@@H]1C2(C)C [Compound 118] |
| ♯ | 0.8 to 6 | C[C@@H](O)[C@H]1[C@@H](CO)ON(Cc2cccc(C#CCNC(=O)c3ccccc3)c2)[C@H]1C(=O)NCc1ccc(Oc2ccccc2)cc1 [Compound 63] |
| ♯ | < 0.8 | CC(O)C1C(CO)ON(Cc2cccc(CN(CCN(C)C)c3ccccc3)c2)C1C(=O)NC1CC2CC(C1C)C2(C)C (centres unmarked) [Compound 476] |
| ♯ | < 0.8 | C[C@@H]1[C@@H](NC(=O)[C@@H]2[C@H]([C@H](C)O)[C@H](CO)ON2Cc2cccc(CN(CCN(C)C)CC(C)(C)C)c2)C[C@H]2C[C@@H]1C2(C)C [Compound 213] |
| ♯ | 6 to 50 | CC(C)C[C@@H](CN(C)C)N(Cc1ccccc1)Cc1cccc(CN2O[C@@H](CO)[C@@H]([C@H](C)O)[C@H]2C(=O)NC(C)C)c1 [Compound 539] |
| ♯ | < 0.8 | C[C@@H]1[C@@H](NC(=O)[C@@H]2[C@H]([C@H](C)O)[C@H](CO)ON2Cc2cccc(-c3cccc(C(=O)N(C)CCCN(C)C)c3)c2)C[C@H]2C[C@@H]1C2(C)C [Compound 148] |
| ♯♯ | 0.8 to 6 | C[C@@H](O)[C@H]1[C@@H](CO)ON(Cc2cccc(C#CC(O)c3ccoc3)c2)[C@H]1C(=O)NCCCN(C)c1ccccc1 (some centres unmarked) [Compound 36] |

| Bcl-XL binding affinity Ki [1] | Ki [2] [µM] | SMILES |
| --- | --- | --- |
| ♯ | < 0.8 | CC(O)C1C(CO)ON(Cc2cccc(C(=O)NC(CN(C)C)c3ccccc3)c2)C1C(=O)NC1CC2CC(C1C)C2(C)C (centres unmarked) [Compound 506] |
| ♯♯ | < 0.8 | C[C@@H]1C(NC(=O)[C@@H]2[C@H]([C@H](C)O)[C@H](CO)ON2Cc2cccc(-c3ccc(NC(=O)N(C)CCCN(C)C)cc3)c2)C[C@@H]2CC1C2(C)C (some centres unmarked) [Compound 282] |
| ♯ | < 0.8 | C[C@@H]1[C@@H](NC(=O)[C@@H]2[C@H]([C@H](C)O)[C@H](CO)ON2Cc2cccc(-c3cccc(C(=O)NC[C@@H]4CCCN4C)c3)c2)C[C@H]2C[C@@H]1C2(C)C [Compound 104] |
| ♯ | < 0.8 | C[C@@H]1[C@@H](NC(=O)[C@@H]2[C@H]([C@H](C)O)[C@H](CO)ON2Cc2cccc(N3CCN(S(C)(=O)=O)CC3)c2)C[C@H]2C[C@@H]1C2(C)C [Compound 293] |
| ♯ | < 0.8 | CC(O)C1C(CO)ON(Cc2cccc(CNC(CCc3ccccc3)CN(C)C)c2)C1C(=O)NC1CC2CC(C1C)C2(C)C (centres unmarked) [Compound 445] |
| ♯ | < 0.8 | C[C@@H]1[C@@H](NC(=O)[C@@H]2[C@H]([C@H](C)O)[C@H](CO)ON2Cc2cccc(N3CCN(C(=S)NCCc4ccccc4)CC3)c2)C[C@H]2C[C@@H]1C2(C)C [Compound 266] |
| ♯ | < 0.8 | C[C@@H]1[C@@H](NC(=O)[C@@H]2[C@H]([C@H](C)O)[C@H](CO)ON2Cc2cccc(CN(CCN(C)C)C3CCCCC3)c2)C[C@H]2C[C@@H]1C2(C)C [Compound 211] |
| ♯ | < 0.8 | CC(C)CC(CN(C)C)N(Cc1cccc(CN2OC(CO)C(C(C)O)C2C(=O)NC2CC3CC(C2C)C3(C)C)c1)Cc1ccccc1N1CCOCC1 (centres unmarked) [Compound 331] |
| ♯ | < 0.8 | CC(O)C1C(CO)ON(Cc2cccc(C(=O)NC(CC3CCCCC3)CN(C)C)c2)C1C(=O)NC1CC2CC(C1C)C2(C)C (centres unmarked) [Compound 499] |
| ♯ | 0.8 to 6 | C[C@@H](O)[C@H]1[C@@H](CO)ON(Cc2cccc(C#CC(C)(O)c3ccccc3)c2)[C@H]1C(=O)NCCCN(C)c1ccccc1 (some centres unmarked) [Compound 49] |
| ♯ | < 0.8 | CC(O)C1C(CO)ON(Cc2cccc(CN(CCN(C)C)Cc3ccccc3N3CCN(C)CC3)c2)C1C(=O)NC1CC2CC(C1C)C2(C)C (centres unmarked) [Compound 385] |
| ♯ | < 0.8 | CCN1CCC[C@H]1CNC(=O)c1cccc(-c2cccc(CN3O[C@@H](CO)[C@@H]([C@H](C)O)[C@H]3C(=O)N[C@H]3C[C@H]4C[C@@H]([C@@H]3C)C4(C)C)c2OC)c1 [Compound 156] |
| ♯ | < 0.8 | CC(O)C1C(CO)ON(Cc2cccc(CN(CCN(C)C)CC3CCCOC3)c2)C1C(=O)NC1CC2CC(C1C)C2(C)C (centres unmarked) [Compound 382] |
| ♯ | < 0.8 | CC(CN(C)C)NC(=O)c1cccc(-c2cccc(CN3O[C@@H](CO)[C@@H]([C@H](C)O)[C@H]3C(=O)N[C@H]3C[C@H]4C[C@@H]([C@@H]3C)C4(C)C)c2)c1 (some centres unmarked) [Compound 110] |
| ♯♯ | < 0.8 | CCNC(=O)c1cccc(-c2cccc(CN3O[C@@H](CO)[C@@H]([C@H](C)O)[C@H]3C(=O)N[C@H]3C[C@H]4C[C@@H]([C@@H]3C)C4(C)C)c2)c1 [Compound 122] |
| ♯ | 0.8 to 6 | C[C@H](O)[C@@H]1[C@H](CO)ON(Cc2cccc(CN(CCN(C)C)Cc3ccccc3)c2)[C@@H]1C(=O)NCC(c1ccccc1)c1ccccc1 [Compound 520] |
| ♯ | < 0.8 | CC(C)CC(CN(C)C)N(Cc1cccc(CN2OC(CO)C(C(C)O)C2C(=O)NC2CC3CC(C2C)C3(C)C)c1)Cc1cccc2c1OCO2 (centres unmarked) [Compound 302] |
| ♯ | < 0.8 | C[C@@H]1[C@@H](NC(=O)[C@@H]2[C@H]([C@H](C)O)[C@H](CO)ON2Cc2cccc(-c3cccc(C(=O)NCCCn4ccnc4)c3)c2)C[C@H]2C[C@@H]1C2(C)C [Compound 123] |
| ♯ | 0.8 to 6 | C[C@H](NC(=O)[C@@H]1[C@H]([C@H](C)O)[C@H](CO)ON1Cc1cccc(CN(CCN(C)C)Cc2ccccc2)c1)c1ccc2ccccc2c1 [Compound 521] |
| ♯ | < 0.8 | COc1c(CN(CCN(C)C)Cc2ccccc2)cccc1CN1O[C@@H](CO)[C@@H]([C@H](C)O)[C@H]1C(=O)NC1C[C@H]2C[C@@H]([C@@H]1C)C2(C)C (some centres unmarked) [Compound 197] |
| ♯ | < 0.8 | C[C@@H]1[C@@H](NC(=O)[C@@H]2[C@H]([C@H](C)O)[C@H](CO)ON2Cc2cccc(-c3ccc4c(=O)n(C)n(C)c(=O)c4c3)c2)C[C@H]2C[C@@H]1C2(C)C [Compound 133] |
